Experimental data reported in US20240197666A1, “DITERPENOID COMPOUNDS THAT ACT ON PROTEIN KINASE C (PKC)” (K-Gen Therapeutics, Inc., priority 2021, published 2024).
Like-named read-outs stand apart in the source and are kept apart here.

Assays:
[1] = tested on: HL-60 (Leukemia); test: Proliferation of HL-60; type: cell-based; conditions: for IC50: Homo sapiens, HL-60, read-out: IC50 HL-60 (Leukemia)
[2] = tested on: Mino (Lymphoma); test: Proliferation of Mino; type: cell-based; conditions: for IC50: Homo sapiens, MINO, read-out: IC50 Mino (Lymphoma)
Outline: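 Luminescent ATP read-out (CellTiter Glo) after 96 h compound exposure gave % inhibition relative to DMSO-treated cells, from which IC50 was fitted. Seeding densities were line-specific, from 800 to 10000 cells/well. Potency across batches was normalised to reference compound K101.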

[3] = tested on: A549 cell line; test: Proliferation of A549 (CellTiter Glo); type: cell-based; conditions: Homo sapiens, A549, 96 h, read-out: IC50 μM (A549 Cell Line)
Outline: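 Compound effect on proliferation was read as CellTiter Glo luminescence after 96 h exposure to a 3-fold dilution series (≤0.25% DMSO). A549 cells, which carry activating K-Ras, were plated at 1,000/well one day before dosing. IC50, relative IC50 and maximal inhibition were fitted from % inhibition versus DMSO control.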

[4] = tested on: Namalwa (Lymphoma); test: Proliferation of Namalwa; type: cell-based; conditions: for IC50: read-out: IC50 Namalwa (Lymphoma)
Outline: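 Proliferation was measured in the K-Ras mutant pancreatic lines and in HL-60 and Namalwa cells. These were plated at densities set per line and left 24 h before compound was added. After 96 h with serially diluted compound, viability was read by CellTiter Glo and IC50 derived.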

[5] = tested on: Panc2.13 (Pancreatic); test: Proliferation of Panc2.13; type: cell-based; conditions: for IC50: read-out: IC50 Panc2.13 (Pancreatic)
Protocol: (§1) The diterpenoid compounds were tested in A549, a non-small cell lung cancer cell line harboring a K-Ras activating mutation. Briefly, A549 cells at a density of 1,000 cells/well were seeded in 96-well plates and incubated at 37° C. for 24 hours. A series of different concentrations of compound stocks (500×) were prepared by 3-fold serial dilution in DMSO. These compounds were further diluted in culture media and then added to cells so that the final DMSO concentration was not exceeding 0.25%. After 96 hours of incubation, 50 μL of CellTiter Glo reagent (Promega) was added to each well and luminescence was measured after 10 minutes using EnVision (PerkinElmer). Luminescence from cells treated with DMSO alone was set as Max and % of inhibition was calculated as follows: Inhibition %=(Max-Sample value)/Max×100. Data was analyzed using XL-fit software (ID Business Solutions Ltd.) and IC50, relative IC50, and % of top inhibition was calculated. Some of the compounds in this disclosure were very potent in blocking proliferation of A549 lung cancer cells at low nM range. In addition, potency of inhibiting A549 proliferation correlated well with its binding affinity to PKCs for this series of compounds. In other words, higher affinity binders had stronger inhibitory effects on A549 proliferation. This further support the notion that activation, rather than inhibition, of certain PKC isoforms is required to block proliferation of cancer cells, some of which may harbor K-Ras mutations. This is in sharp contrast to previous literature and common belief that inhibition of PKC is necessary to block cancer cell growth (Kang, 2014, New Journal of Science, 2014:1-36). Data presented here is in agreement with recent findings that many loss-of-function but not gain-of-function mutations of PKC isoforms have been identified in many human cancers (Antal et al., 2015, Cell, 160:489-502).
(§2) The compounds in this disclosure were tested for their potency in blocking proliferation of a few other cancer cells lines, including K-Ras mutant pancreatic cell lines Panc2.13 and KP-4, leukemia cell line HL-60, and lymphoma cell lines Namalwa and Mino. Similar procedures as in Example 67 were followed. Initial cell numbers seeded in 96-well plates were different for different cell lines: 3000 cells/well for Panc2.13; 800-1000 cells/well for KP-4; 5000 cells/well for HL-60; 5000-10000 cells/well for Namalwa and Mino. A ratio of (IC50 of K101)/(IC50 of compound) (data in parenthesis in Table 5) was used to normalize the compound potency from different assay batches to a common comparator K101.

[6] = tested on: NFκB-driven transcription in HeLa-NFκB luciferase reporter cell line; test: NFκB luciferase reporter assay; conditions: Homo sapiens, HeLa, 16 h, read-out: NFκB-luc HeLa cells EC50 (μM)
[7] = tested on: KP-4 (Pancreatic); test: Proliferation of KP-4; type: cell-based; conditions: read-out: IC50 KP-4 (Pancreatic)
Protocol: as §1, §2

[8] = tested on: Hela cells; test: In vitro scratch wound healing assay; type: cell-based; conditions: 24h
Protocol: Scratch wound healing assay creates a gap by scratching a confluent monolayer of cells to mimic a wound and then measures the ability of cells to fill up the gap (wound) in the presence of DMSO or test compounds. 1.2-1.5×10^5 Hela cells in 1 mL media RPMI-1640 with 10% FBS were seeded in 24-well plates. Cells were starved for overnight in the same media without FBS when cells became confluent. After starvation, a scratch was made in the middle of the well and the plates were washed three times to remove detached cells. DMSO or different concentrations of compounds were diluted and added to the cells. The assay plates were put into Incucyte S3 and scanned with 4× scanner setting regularly. The imaging results were exported and the wound area was analyzed by ImageJ. Wound healing or closure was calculated by the following formula: wound healing %=(wound area at 0h−wound area at 24h)/wound area 0h*100%. Relative wound healing was calculated by dividing wound healing % of compound treatment to that of DMSO*100%.

[9] = tested on: PANC1 cells; test: Sphere formation assay; type: cell-based; conditions: Homo sapiens, PANC-1, read-out: concentration exhibiting at least 50% inhibition on the sphere forming efficiency
Protocol: A group of diterpenoid compounds of the present disclosure were tested to assess their effects on blocking formation of spheres from cancer cell lines such as PANC1, a K-Ras mutant pancreatic cell line. Briefly, PANC1 cells were harvested, re-suspended as single cell suspensions, counted and seeded into Ultra Low Attachment Culture 96-well plate (Corning, Cat #3474) at 100 cells/well in 100 μl of complete media (with 10% FBS) containing 2% Matrigel (Corning, Cat #354234) and DMSO or compounds. Six replicates per condition were seeded. The seeded cells were placed in the 37° C. tissue culture incubator. 10 μl of low serum containing media (with 0.1% FBS) was added to each well every week. Spheres formed after 3-4 weeks were counted. Sphere forming efficiency was expressed as percentage of # of spheres/ # of cells seeded.

[10] = tested on: Panc2.13 tumors; test: Panc2.13 xenograft model, intra-tumoral injection; type: in vivo, mouse; conditions: for Tumor growth inhibition T/C: Day 45, seven daily IT injections, Nu/Nu mice; for tumor clearance: end of efficacy study, three mice per group, seven daily IT injections
Protocol: Immunodeficient (athymic) Nu/Nu mice were implanted at one flank subcutaneously with Panc2.13 pancreatic cancer cells. […] All groups tolerated drug treatments very well. […] Scabs formed after 1-2 weeks and the skin recovered with minimal scaring after 3-4 weeks. Tumor growth/re-growth on or near the injection site was monitored for up to 55 days. […] Tumor growth inhibition is calculated by dividing the group average tumor volume for the treated group by the group average tumor volume for the control group (TIC). A one-way ANOVA was performed to compare tumor volume among groups, and when a significant F-statistics (a ratio of treatment variance to the error variance) was obtained, comparisons between groups were carried out with Games-Howell test. All data were analyzed using GraphPad 5.0. P<0.05 was considered to be statistically significant.
A Mann-Whitney method was performed to analyze the tumor clearance rate comparing drug treated groups with the vehicle group at the end of the efficacy study. P<0.05 was considered to be statistically significant. Vehicle-injected tumors kept growing and there was no tumor clearance at the end point.

Row | SMILES | ratio (IC50 of K101)/(IC50 of compound) HL-60 [1] | IC50 [1] [µM] | ratio (IC50 of K101)/(IC50 of compound) Mino [2] | IC50 [2] [µM] | IC50 [3] [µM] | ratio (IC50 of K101)/(IC50 of compound) Namalwa [4] | IC50 [4] [µM] | ratio (IC50 of K101)/(IC50 of compound) Panc2.13 [5] | IC50 [5] [µM] | EC50 [6] [µM] | IC50 [7] [µM] | Relative wound healing to control (%) ([8]; 30 nM) | Relative wound healing to control (%) ([8]; 100 nM) | Relative wound healing to control (%) ([8]; 300 nM) | IC50 [9] [µM] | Tumor growth inhibition T/C [10] | tumor clearance [10] | Relative wound healing to control (%) ([8]; 3 nM) | Relative wound healing to control (%) ([8]; 10 nM) | also measured
1 | CC1=C[C@H]2[C@@]3(O)[C@H](C)C[C@]4(OC(=O)[C@@H](N)CC5CCCCC5)[C@H]([C@@H]3C=C(CO)C[C@]2(O)C1=O)C4(C)C | 2.32 | 0.03 to 0.06 | 7.33 | 0.001 to 0.01 | 0.06 to 0.1 | 2.03 | 0.03 to 0.06 | 7.1 | 0.1 to 0.2 | 0.03 to 0.06 | 0.1 to 0.2 | 123 | 351 | 287 |  |  |  |  |  | 
2 | CC1=C[C@H]2[C@@]3(O)[C@H](C)C[C@]4(OC(=O)[C@@H](N)C5Cc6ccccc6C5)[C@H]([C@@H]3C=C(CO)C[C@]2(O)C1=O)C4(C)C | 1.79 | 0.03 to 0.06 | 5.5 | 0.01 to 0.03 | 0.06 to 0.1 | 1.6 | 0.03 to 0.06 | 5.82 | 0.1 to 0.2 | 0.06 to 0.1 |  | 210 | 248 | 238 | ≤ 0.15 |  |  |  |  | IC50 ([7]; 96 h): 0.1 to 0.6 µM
3 | CC1=C[C@H]2[C@@]3(O)[C@H](C)C[C@]4(OC(=O)[C@@H](N)[C@]56C[C@H]7C[C@H](C[C@H](C7)C5)C6)[C@H]([C@@H]3C=C(CO)C[C@]2(O)C1=O)C4(C)C | 16.2 | 0.001 to 0.01 | 52.2 | 0.001 to 0.01 | 0.001 to 0.01 | 18.2 | 0.001 to 0.01 | 71.7 | 0.01 to 0.03 | 0.001 to 0.01 | 0.001 to 0.01 | 272 |  |  | ≤ 0.05 | 3.3 | two out of three | 191 | 198 | 
4 | CC1=C[C@H]2[C@@]3(O)[C@H](C)C[C@]4(OC(=O)[C@H](N)CCCCCCc5ccccc5)[C@H]([C@@H]3C=C(CO)C[C@]2(O)C1=O)C4(C)C | 4.43 | 0.01 to 0.03 | 21.3 | 0.001 to 0.01 | 0.01 to 0.03 | 4.93 | 0.01 to 0.03 | 13.4 |  | 0.01 to 0.03 | 0.03 to 0.06 | 239 | 263 |  | ≤ 0.15 | 0 |  |  | 221 | IC50 ([5]; 96 h): 0.1 to 0.6 µM
5 | CC1=C[C@H]2[C@@]3(O)[C@H](C)C[C@]4(OC(=O)[C@@H](N)CCCCCCc5ccccc5)[C@H]([C@@H]3C=C(CO)C[C@]2(O)C1=O)C4(C)C | 12.1 | 0.001 to 0.01 | 52.2 | 0.001 to 0.01 | 0.001 to 0.01 | 16.1 | 0.001 to 0.01 | 57.3 | 0.01 to 0.03 | 0.001 to 0.01 | 0.001 to 0.01 | 267 |  |  | ≤ 0.05 |  | one out of three | 162 | 237 | 
